Test results taken from patent EP3748362A1, “IN VITRO METHOD FOR DETECTING RENAL DISEASE” (Fundacion Instituto De Investigacion Sanitaria Fundacion …, priority 2019, dated 2020).

Experiments:
CIAP1-TRAF3 complex = experiment: TRAF3 immunoprecipitation (ubiquitin-Lys-48, CIAP1) in TWEAK-stimulated HK2 cells; type: cell-based, Human; conditions: TWEAK 100 ng/ml, paricalcitol 15 umol/L
Description: (§1) Human kidney proximal tubule epithelial cells (HK2 cell line, ATCC CRL-2190) were grown in RPMI 1640 with 10% fetal bovine serum (FBS), 1% glutamine, 100 U/ml penicillin, 100 µg/ml streptomycin, 5 µg/ml insulin-transferrin-selenite and 36 ng/ml hydrocortisone in 5% CO2 at 37° C. When cells reached 60 to 70% confluence, they were serum-depleted for 24 hours before the experiment.
(§2) Cells were stimulated with 100ng/ml recombinant human soluble TWEAK (Millipore) or p-200 µg/ml cresyl-sulfate (Raymond Vanholder and Griet Glorieux, University of Gent, Belgium). Concentrations of TWEAK and p-cresyl-sulfate were based on previously published dose-response experiments (Poveda et al. 2014; Sanz et al. 2008). […] DMSO, used as a solvent in some cases, had no effect on cell viability or on gene expression levels.
Cells growing in tissue culture dish plates, were lysed in 300-500 µl Triton-NP-40 lysis buffer [50 mmol/L Tris-HCl pH 8, 150 mmol/L NaCl, 1 mmol/L phenylmethylsulphonylfluoride, 1% NP-40/IGEPAL, and a phosphatase-inhibitor cocktail (Set II, Calbiochem)], scraped off the dish and incubated 1 hour to 4°C with shaking. Cell lysates were precleared by incubating with 10 µl protein A-agarose bead slurries (0.5 mL agarose/2 mL phosphate-buffered saline) for 30 min at 4°C, and then centrifuged three times for 5 minutes at 2500 rpm, to wash supernatants. […]

NF-κB2 = NF-κB2 activation (p52 western blot) in MARSS gene silenced HK2 cells stimulated with TWEAK; type: cell-based, Human; conditions: paricalcitol 15 µmol/L 48 hours, TWEAK 100 ng/ml
Description: as §1, §2
For western blot, cell (25 µg/lane) and kidney (100-150 µg/lane) protein extracts were separated on 6%-12% polyacrylamide-SDS gels under reducing conditions. […] Autoradiographs were scanned using the Gel Doc™ EZ imager and analyzed with the Image Lab 3.0 software (BioRad). […]

## C[C@H](/C=C/[C@H](C)C(C)(C)O)[C@H]1CC[C@H]2/C(=C/C=C3C[C@@H](O)C[C@H](O)C3)CCC[C@]12C [paricalcitol]
CIAP1-TRAF3 complex
  TRAF3 ubiquitination and CIAP1-TRAF3 complex formation: prevented
NF-κB2
  TWEAK-induced NF-κB2 activation: diminished
